One experiment concerns the target CLK2 (Homo sapiens (Human), UniProt P49760). Nature of the experiment: CLK kinase activity assay (ADP-Glo). It counts as biochemical. Here is the method: (§1) Kinase protein and substrate were pre-diluted in the HEPES assay buffer (100 mM HEPES, pH 7.5, 0.01% Triton X-100, 0.1% BSA, 5 mM MgCl2, 1 mM DTT, 10 μM Sodium Orthovanadate, 10 μM Beta-Glycerophosphate) dispensed into 384 well plate (5 μL per well). Control samples (0%-inhibition in the absence of inhibitor, DMSO only) and 100%-inhibition (in the absence of enzyme) were assembled in replicates of six and were used to calculate %-inhibition in the presence of compounds. Test compounds were added to the protein samples by acoustic dispensing (Labcyte Echo550). Concentration of DMSO was equalized to 1% in all samples. Reactions were initiated by addition of ATP by acoustic dispensing (Labcyte Echo550) and incubated according to assay specific incubation time. After incubation, 5 uL of Promega ADP-Glo reagent was added and incubated for 40 minutes. After 40 minutes, 10 uL of Promega kinase detection reagent was added. After 10 min of incubation with Kinase detection reagent, the luminescence was read on microplate reader (Biotek Synergy).
(In general: In ADP-Glo the light output rises with the ADP produced.)

Another experiment addresses CLK1 (Homo sapiens (Human), UniProt P49759). The experiment is described as follows: CLK kinase activity assay (ADP-Glo). It is filed as biochemical. Here is the method: as §1
For a further experiment, the target named is CLK4 (Homo sapiens (Human), UniProt Q9HAZ1). The experiment is described as follows: CLK kinase activity assay (ADP-Glo). It counts as biochemical. Here is the method:
as §1

The target in another experiment is CLK3 (Homo sapiens (Human), UniProt P49761). The experiment is described as follows: CLK kinase activity assay (ADP-Glo). It is filed as biochemical. Here is the method:
as §1

Another experiment addresses phospho-FLT3 (Y589/Y591) (Homo sapiens (Human), UniProt P36888, INS600HVDFREYEYD). Nature of the experiment: Inhibition of kinase phosphorylation by Western Blot in MV-4-11. To be noted: MV-4-11 cells, 4 hour-incubation; read-out: pFLT3 MV-4-11 IC50. It is filed as cell-based.
In experiment [1] the test system is Phospho-p44/42 MAPK (Erk1/2) (T202/Y204). The experiment is described as above. It is filed as cell-based. Particulars: MV-4-11 cells, 4 hour-incubation; read-out: pERK MV-4-11 IC50. The protocol: (§2) Inhibition of kinase phosphorylation assay was performed by Western Blot using MV-4-11 and MOLM13 cell lines. Cells were plated in 24 well plates at 1 million cells per well and then treated with compounds at different concentrations, starting at 100 nM, 1:4 titration with DMSO as control. After 4 hour-incubation, cells were washed once with ice-cold PBS, and lysed in RIPA lysis buffer with protease and phosphatase inhibitors. The cell lysates were then sonicated and spun down, and 40 μg of proteins were separated by sodium dodecyl sulfate electrophoresis on a 4 to 12% Bis-Tris polyacrylamide gel and transferred onto nitrocellulose membranes using Bio-Rad Trans-Blot Turbo Transfer System (Bio-Rad). Blocking was performed using 3% BSA or 5% Non-fat dry milk (Fisher Scientific) in TBST (Tris-buffered saline containing 0.05% of Tween 20) (Bio-Rad Laboratories, Inc.). The membranes were incubated overnight with anti-phospho-FLT3 (Y589/Y591) (CST #60413), anti-phospho-STAT5 (Y694) (CST #4322), anti-Phospho-p44/42 MAPK (Erk1/2) (T202/Y204) (CST #9101), anti-Phospho-S6 Ribosomal Protein (S235/236) (CST #4858) and anti-β-Actin (CST #8457) each diluted 1000 times in 3% BSA in TBST. Membranes were washed with TBST and then incubated at room temperature for 1 hour with HRP-labeled anti-rabbit IgG polyclonal antibody (CST #7074) diluted 1000 times in 3% BSA. After TBST washing, blots were developed with a chemiluminescence system (SuperSignal West Femto Maximum Sensitivity Substrate, Pierce #34095). Luminescence was detected by LI-COR Odyssey M imaging system and luminescence intensity were quantified using Empiria Studio 2.2 software. Data was analyzed using GraphPad Prism 9 (GraphPad Software, San Diego, CA) to obtain IC50 values.

The subject of another experiment is phospho-STAT5 (Y694). The experiment is described as above. It counts as cell-based. To be noted: MV-4-11 cells, 4 hour-incubation; read-out: pSTAT5 MV-4-11 IC50. Here is the method: as §2
In experiment [2] the test system is Phospho-S6 Ribosomal Protein (S235/236). The experiment is described as above. It counts as cell-based. Particulars: MV-4-11 cells, 4 hour-incubation; read-out: pS6 MV-4-11 IC50. The protocol: as §2
In a further experiment the test system is BCLxS/xL. The experiment is described as follows: Alternative splicing ratio by qPCR in MV-4-11. It counts as cell-based. To be noted: DMSO = 1. Here is the method: Alternative splicing ratio of RNA transcripts was measured by qPCR in MV-4-11 and MOLM-13 cell lines. Cells were plated in 24 well plates at 1 million cells per well and then treated with compounds at different concentrations, with DMSO only as control. […] Total RNA was extracted using the RNA Purification Kit (Invitrogen). 2 μg of RNA was used for cDNA synthesis using cDNA synthesis kit (ThermoFisher) and 20 ng of cDNA was used for qPCR using PROFLEX 96-Well PCR System (ThermoFisher).
• BCLxS/xL (SYBR Green, IDT)
A general note: Real-time PCR tracks product formation cycle by cycle.

The next experiment deals with PIM3 (Homo sapiens (Human), UniProt Q86V86). Nature of the experiment: HotSpot radiometric kinase assay (Reaction Biology). It is filed as biochemical. Here is the method: (§3) Briefly, specific kinase/substrate pairs along with required cofactors were prepared in reaction buffer; 20 mM Hepes pH 7.5, 10 mM MgCl2, 1 mM EGTA, 0.02% Brij35, 0.02 mg/ml BSA, 0.1 mM Na3VO4, 2 mM DTT, 1% DMSO. Compounds were delivered into the reaction, followed ˜20 minutes later by addition of a mixture of ATP (Sigma, St. Louis MO) and ^33P ATP (Perkin Elmer, Waltham MA) to a final concentration of […]. Reactions were carried out at room temperature for 120 min, followed by spotting of the reactions onto P81 ion exchange filter paper (Whatman Inc., Piscataway, NJ). Unbound phosphate was removed by extensive washing of filters in 0.75% phosphoric acid. […] IC50 values and curve fits were obtained using Prism (GraphPad Software).

The target of the next experiment is PIM2 (Homo sapiens (Human), UniProt Q9P1W9). Described as above. It counts as biochemical. The protocol: as §3
The target in another experiment is PIM1 (Homo sapiens (Human), UniProt P11309). The description is as above. It is filed as biochemical. The protocol: as §3

Experimental findings from patent US20260070924A1, “INDAZOLE MACROCYCLES AND THEIR USE” (BLOSSOMHILL THERAPEUTICS, INC., priority 2022, published 2026) are described below.

One may read the IC50 as the concentration that gives 50% inhibition.

Sequence of CLK1 (P49759 whole entry): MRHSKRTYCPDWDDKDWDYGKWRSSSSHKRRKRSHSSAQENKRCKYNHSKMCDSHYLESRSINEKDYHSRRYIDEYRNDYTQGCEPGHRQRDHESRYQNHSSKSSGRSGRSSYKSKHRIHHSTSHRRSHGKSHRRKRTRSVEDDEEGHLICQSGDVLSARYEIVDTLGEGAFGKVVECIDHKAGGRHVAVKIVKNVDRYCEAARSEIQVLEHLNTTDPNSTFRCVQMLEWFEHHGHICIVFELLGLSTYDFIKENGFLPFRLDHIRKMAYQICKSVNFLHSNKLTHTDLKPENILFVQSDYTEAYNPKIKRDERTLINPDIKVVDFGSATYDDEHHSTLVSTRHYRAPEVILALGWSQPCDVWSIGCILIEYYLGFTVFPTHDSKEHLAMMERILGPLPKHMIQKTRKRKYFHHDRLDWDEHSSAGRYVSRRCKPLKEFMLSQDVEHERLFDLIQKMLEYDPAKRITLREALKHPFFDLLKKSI
Sequence of PIM1 (P11309 whole entry): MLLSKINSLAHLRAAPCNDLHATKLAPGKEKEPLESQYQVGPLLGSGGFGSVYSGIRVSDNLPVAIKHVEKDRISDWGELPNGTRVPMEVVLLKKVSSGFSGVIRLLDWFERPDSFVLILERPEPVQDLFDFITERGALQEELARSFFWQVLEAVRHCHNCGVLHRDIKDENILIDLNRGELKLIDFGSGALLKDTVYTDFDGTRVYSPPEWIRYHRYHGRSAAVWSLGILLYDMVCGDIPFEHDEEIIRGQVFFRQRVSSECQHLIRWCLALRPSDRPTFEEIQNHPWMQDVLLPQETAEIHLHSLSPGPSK
Sequence of CLK3 (P49761 whole entry): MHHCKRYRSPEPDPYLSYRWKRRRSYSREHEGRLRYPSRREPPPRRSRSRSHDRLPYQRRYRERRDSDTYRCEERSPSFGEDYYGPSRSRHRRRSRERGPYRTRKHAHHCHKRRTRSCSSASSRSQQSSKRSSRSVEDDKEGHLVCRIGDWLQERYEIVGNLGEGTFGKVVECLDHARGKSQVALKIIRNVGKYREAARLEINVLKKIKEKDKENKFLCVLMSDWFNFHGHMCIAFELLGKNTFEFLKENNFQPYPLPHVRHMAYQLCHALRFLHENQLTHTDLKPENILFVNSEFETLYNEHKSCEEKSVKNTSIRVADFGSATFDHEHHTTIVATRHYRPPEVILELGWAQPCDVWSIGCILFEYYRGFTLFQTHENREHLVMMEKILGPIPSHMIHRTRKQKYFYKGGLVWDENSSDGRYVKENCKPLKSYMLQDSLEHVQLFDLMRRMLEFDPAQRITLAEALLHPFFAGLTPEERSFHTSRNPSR
Sequence of CLK2 (P49760 whole entry): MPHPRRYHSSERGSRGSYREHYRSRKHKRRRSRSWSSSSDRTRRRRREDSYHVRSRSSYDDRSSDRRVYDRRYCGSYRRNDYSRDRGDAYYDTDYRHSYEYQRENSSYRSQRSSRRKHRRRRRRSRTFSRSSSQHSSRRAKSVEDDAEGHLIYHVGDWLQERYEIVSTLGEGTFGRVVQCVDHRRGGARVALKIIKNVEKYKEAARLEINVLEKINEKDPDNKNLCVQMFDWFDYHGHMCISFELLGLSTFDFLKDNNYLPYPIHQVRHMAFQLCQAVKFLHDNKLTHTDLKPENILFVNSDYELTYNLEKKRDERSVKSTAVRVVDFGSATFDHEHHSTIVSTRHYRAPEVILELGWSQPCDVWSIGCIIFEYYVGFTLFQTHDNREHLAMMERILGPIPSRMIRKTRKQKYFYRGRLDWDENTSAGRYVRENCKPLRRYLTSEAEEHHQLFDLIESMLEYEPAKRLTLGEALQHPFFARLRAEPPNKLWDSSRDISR
Sequence of PIM2 (Q9P1W9 whole entry): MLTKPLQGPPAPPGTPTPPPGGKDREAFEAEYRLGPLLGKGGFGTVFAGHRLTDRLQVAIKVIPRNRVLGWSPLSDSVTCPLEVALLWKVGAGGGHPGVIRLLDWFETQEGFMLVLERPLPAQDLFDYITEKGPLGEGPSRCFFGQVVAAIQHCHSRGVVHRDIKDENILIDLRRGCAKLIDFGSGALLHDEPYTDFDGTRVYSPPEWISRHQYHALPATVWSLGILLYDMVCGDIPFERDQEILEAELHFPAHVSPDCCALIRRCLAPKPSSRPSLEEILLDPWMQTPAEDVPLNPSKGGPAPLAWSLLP
Sequence of CLK4 (Q9HAZ1 whole entry): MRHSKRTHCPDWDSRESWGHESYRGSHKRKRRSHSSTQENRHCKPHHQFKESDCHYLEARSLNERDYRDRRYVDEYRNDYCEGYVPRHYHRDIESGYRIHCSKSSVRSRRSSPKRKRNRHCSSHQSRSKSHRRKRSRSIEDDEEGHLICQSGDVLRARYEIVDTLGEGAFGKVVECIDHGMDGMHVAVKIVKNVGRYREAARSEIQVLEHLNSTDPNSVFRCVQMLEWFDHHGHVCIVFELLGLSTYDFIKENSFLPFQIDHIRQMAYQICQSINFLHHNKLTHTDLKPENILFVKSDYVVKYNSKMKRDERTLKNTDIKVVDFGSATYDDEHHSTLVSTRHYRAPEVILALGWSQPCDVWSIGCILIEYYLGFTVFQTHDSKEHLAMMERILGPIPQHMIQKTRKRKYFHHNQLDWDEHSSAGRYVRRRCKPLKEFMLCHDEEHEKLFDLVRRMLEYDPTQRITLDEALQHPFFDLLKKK
Sequence of phospho-FLT3 (Y589/Y591) (P36888 whole entry, looked up, stated change not applied): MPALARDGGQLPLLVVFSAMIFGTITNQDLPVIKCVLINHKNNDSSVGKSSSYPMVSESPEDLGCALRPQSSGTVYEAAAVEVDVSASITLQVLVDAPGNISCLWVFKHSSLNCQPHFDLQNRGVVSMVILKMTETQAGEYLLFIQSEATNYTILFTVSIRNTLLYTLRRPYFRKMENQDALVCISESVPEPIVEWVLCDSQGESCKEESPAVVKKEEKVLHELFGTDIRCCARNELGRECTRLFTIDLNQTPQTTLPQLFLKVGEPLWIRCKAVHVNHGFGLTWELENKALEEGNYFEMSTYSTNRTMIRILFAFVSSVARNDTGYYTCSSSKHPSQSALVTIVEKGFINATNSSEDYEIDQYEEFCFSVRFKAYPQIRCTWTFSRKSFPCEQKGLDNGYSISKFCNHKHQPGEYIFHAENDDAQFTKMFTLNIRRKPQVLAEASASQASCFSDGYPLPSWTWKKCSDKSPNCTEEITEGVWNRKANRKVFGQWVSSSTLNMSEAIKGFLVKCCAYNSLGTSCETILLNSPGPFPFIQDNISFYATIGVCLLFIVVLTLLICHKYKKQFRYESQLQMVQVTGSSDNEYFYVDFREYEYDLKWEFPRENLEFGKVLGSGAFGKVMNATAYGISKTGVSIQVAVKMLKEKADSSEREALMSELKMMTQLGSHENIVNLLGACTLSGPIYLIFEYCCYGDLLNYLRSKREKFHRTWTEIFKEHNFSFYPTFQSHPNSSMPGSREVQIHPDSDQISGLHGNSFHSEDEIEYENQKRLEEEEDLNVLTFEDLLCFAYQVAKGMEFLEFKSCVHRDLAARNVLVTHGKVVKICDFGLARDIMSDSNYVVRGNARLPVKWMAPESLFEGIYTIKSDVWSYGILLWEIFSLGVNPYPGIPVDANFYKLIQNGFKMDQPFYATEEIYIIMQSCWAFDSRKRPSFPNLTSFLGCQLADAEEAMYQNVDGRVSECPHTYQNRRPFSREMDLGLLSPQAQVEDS
Protocol for phospho-FLT3 (Y589/Y591): Inhibition of kinase phosphorylation assay was performed by Western Blot using MV-4-11 and MOLM13 cell lines. Cells were plated in 24 well plates at 1 million cells per well and then treated with compounds at different concentrations, starting at 100 nM, 1:4 titration with DMSO as control. After 4 hour-incubation, cells were washed once with ice-cold PBS, and lysed in RIPA lysis buffer with protease and phosphatase inhibitors. The cell lysates were then sonicated and spun down, and 40 μg of proteins were separated by sodium dodecyl sulfate electrophoresis on a 4 to 12% Bis-Tris polyacrylamide gel and transferred onto nitrocellulose membranes using Bio-Rad Trans-Blot Turbo Transfer System (Bio-Rad). Blocking was performed using 3% BSA or 5% Non-fat dry milk (Fisher Scientific) in TBST (Tris-buffered saline containing 0.05% of Tween 20) (Bio-Rad Laboratories, Inc.). […] Luminescence was detected by LI-COR Odyssey M imaging system and luminescence intensity were quantified using Empiria Studio 2.2 software. Data was analyzed using GraphPad Prism 9 (GraphPad Software, San Diego, CA) to obtain IC50 values.

`CCc1nn(C)c2c1/C=C/c1n[nH]c3ccc(cc13)-c1cnn(C)c1OCCN(C)C2=O` [Ex. 6, (17E)-16-ethyl-8,12,14-trimethyl-2,11,12,14-tetrahydro-8H-3,5-ethenotripyrazolo[3,4-f:3′,4′-j:4″,3″-n][1,4]oxazacyclopentadecin-13(10H)-one]: the IC50 was 0.165 nM on CLK2; 0.134 nM on CLK1; 0.446 nM on CLK4; 5.87 nM on CLK3; 0.16 nM on phospho-FLT3 (Y589/Y591); 2.85 nM in [1]. In addition, the IC50 in the experiment with phospho-STAT5 (Y694) turned out to be 0.6 nM; in [2], 0.41 nM; on PIM3, 0.115 nM; at PIM2, 5.68 nM; against PIM1 it was 2.65 nM. For the same molecule, the “Alternative Splicing Ratio BCL-xS/xL 6-hour” value with BCLxS/xL (MV-4-11, 2 nM) came to 0.7; in the experiment on BCLxS/xL (MV-4-11, 10 nM), 1.1; in the experiment on BCLxS/xL (MV-4-11, 50 nM) it was 1.4; in the experiment on BCLxS/xL (MV-4-11, 250 nM) it was 3.7. Moreover, the “Alternative Splicing Ratio BCL-xS/xL 24-hour” value in the experiment on BCLxS/xL (MV-4-11, 2 nM) worked out at 0.6; in the experiment with BCLxS/xL (MV-4-11, 10 nM) it was 0.9; in the experiment on BCLxS/xL (MV-4-11, 50 nM), 1.3; in the experiment with BCLxS/xL (MV-4-11, 250 nM) it was 7.3.
